The source of these data is DBAASP.

A word on the MIC: it is the smallest concentration in the dilution series that meets the test's criterion for growth inhibition.

In brackets after ≈: the same amount, converted by molar mass. Several values for one entry are separate records, joined by “and”; a condition that tells them apart may be missing. Equal values may be shown once.

Some test systems named below: Bacillus subtilis C971; Escherichia coli UB1005; Escherichia coli DC2; Pasteurella multocida; Bibersteinia trehalosi; Staphylococcus aureus; Aspergillus fumigatus; Klebsiella pneumoniae; Candida albicans 105; Candida albicans 3153A; Escherichia coli O111; Escherichia coli O157:H7.
Holding throughout (test): ≥ marks a high value that may be exact or a test limit, other limits are often not marked, values filed in µg/mL are converted to µM
In experiment [1] the test system is Pseudomonas aeruginosa H187.
For experiment [2], the system named is Pseudomonas aeruginosa H188.
Experiment [3] deals with Enterococcus faecalis C625.
Experiment [4] deals with Corynebacterium xerosis C875.
Experiment [5] concerns Salmonella typhimurium C587.
Experiment [6] deals with Staphylococcus aureus ATCC 25923.
The test system of experiment [7] is Salmonella typhimurium C610.
Experiment [8] relates to Staphylococcus aureus SAP 0017.
Experiment [9] deals with Staphylococcus epidermidis C621.
The test system of experiment [10] is Salmonella enterica subsp. arizonae.
Experiment [11] relates to Mannheimia haemolytica Serovar 2.
Experiment [12] has as its system Mannheimia haemolytica Serovar 6.
In experiment [13] the test system is Mannheimia haemolytica Serovar 1.
Experiment [14] relates to Pseudomonas aeruginosa PAO1.
The subject of experiment [15] is Corynebacterium pseudotuberculosis ATCC 19410.
Experiment [16] relates to Staphylococcus aureus NCTC 4163.
Experiment [17] relates to Staphylococcus aureus R147.
The test system of experiment [18] is Salmonella enterica subsp. enterica serovar Typhimurium ATCC 14028s.
The subject of experiment [19] is Salmonella enterica serovar Typhimurium MS4252S.
In experiment [20] the test system is Staphylococcus aureus 1056.
Experiment [21] concerns Enterococcus faecalis ATCC 29212.
Experiment [22] has as its system Pseudomonas aeruginosa Z61.
In experiment [23] the test system is Staphylococcus epidermidis.

On to `CC[C@H](C)[C@H](NC(=O)[C@H](C)NC(=O)[C@H](CCCCN)NC(=O)[C@H](CC(C)C)NC(=O)[C@H](C)NC(=O)[C@@H](NC(=O)[C@H](Cc1cnc[nH]1)NC(=O)[C@H](CC(C)C)NC(=O)[C@@H](NC(=O)[C@@H](NC(=O)[C@H](CCCCN)NC(=O)[C@@H](NC(=O)[C@H](C)NC(=O)CNC(=O)[C@H](CCCCN)NC(=O)[C@H](Cc1ccccc1)NC(=O)[C@@H](NC(=O)[C@H](CCCCN)NC(=O)[C@H](CC(C)C)NC(=O)[C@H](Cc1ccccc1)NC(=O)[C@H](CO)NC(=O)[C@H](CCCCN)NC(=O)[C@H](Cc1c[nH]c2ccccc12)NC(=O)[C@H](CCCCN)NC(C)=O)[C@@H](C)O)C(C)C)[C@@H](C)O)C(C)C)[C@@H](C)O)C(=O)N[C@@H](CO)C(=O)N[C@@H](CO)C(N)=O` [KWKSFLKTFKGAVKTVLHTALKAISS], for which the MIC in experiment [1] stood at 1.38 µM (≈ 4.06 µg/mL); in experiment [2], 3.49 µM (≈ 10.2 µg/mL); in experiment [3], 4.39 µM (≈ 12.9 µg/mL); with Bacillus subtilis C971 it was 0.692 µM (≈ 2.03 µg/mL); in experiment [4], 0.692 µM (≈ 2.03 µg/mL); in experiment [5] it was 4.39 µM (≈ 12.9 µg/mL). The minimum inhibitory concentration (MIC) came out at 2.77 µM (≈ 8.11 µg/mL) in experiment [6]; 1.11 µM (≈ 3.25 µg/mL) in [7]; 1.73 µM (≈ 5.07 µg/mL) in experiment [8]; 1.73 µM (≈ 5.07 µg/mL) with Escherichia coli UB1005; 0.865 µM (≈ 2.54 µg/mL) against Escherichia coli DC2; 1.38 µM (≈ 4.06 µg/mL) in experiment [9].
For the compound `CC[C@H](C)[C@H](NC(=O)[C@H](Cc1cnc[nH]1)NC(=O)[C@@H](NC(=O)[C@@H](NC(=O)[C@H](CCCCN)NC(=O)[C@H](CCCN=C(N)N)NC(=O)[C@@H](NC(=O)[C@@H](NC(=O)[C@H](CCCN=C(N)N)NC(=O)[C@H](CCCN=C(N)N)NC(=O)[C@@H](N)CC(C)C)[C@@H](C)CC)[C@@H](C)CC)[C@@H](C)CC)[C@@H](C)CC)C(=O)N[C@H](C(=O)N[C@@H](CCCCN)C(N)=O)[C@@H](C)CC` [LRRIIRKIIHIIK], the minimal inhibitory concentration (MIC) in experiment [10] stood at 12 µM (≈ 20 µg/mL); against Pasteurella multocida it was 2.99 µM (≈ 5 µg/mL); in experiment [11] it was 1.02 µM (≈ 1.7 µg/mL); in experiment [12], 2.51 µM (≈ 4.2 µg/mL); in experiment [13], 1.97 µM (≈ 3.3 µg/mL); against Bibersteinia trehalosi, 2.99 µM (≈ 5 µg/mL). Moreover, the MIC in experiment [14] came to 1.02 µM (≈ 1.7 µg/mL); with Staphylococcus aureus, 5.98 µM (≈ 9.99 µg/mL); in experiment [15], 12 µM (≈ 20 µg/mL); in the experiment with Aspergillus fumigatus, 4.96 µM (≈ 8.3 µg/mL); against Klebsiella pneumoniae, 4.01 µM (≈ 6.7 µg/mL).
With `CC[C@H](C)[C@H](NC(=O)[C@@H]1CCCN1C(=O)[C@@H]1CCCN1C(=O)[C@H](CCCN=C(N)N)NC(=O)[C@H](Cc1ccccc1)NC(=O)[C@@H](N)CCCN=C(N)N)C(=O)N[C@@H](CCCN=C(N)N)C(=O)N[C@@H](CCCN=C(N)N)C(=O)N1CCC[C@H]1C(=O)N1CCC[C@H]1C(=O)N[C@H](C(=O)N[C@@H](CCCN=C(N)N)C(=O)N1CCC[C@H]1C(=O)N1CCC[C@H]1C(=O)N[C@@H](Cc1ccccc1)C(=O)N[C@@H](CCCN=C(N)N)C(=O)N1CCC[C@H]1C(=O)N1CCC[C@H]1C(=O)N[C@@H](Cc1ccccc1)C(=O)N[C@@H](CCCN=C(N)N)C(=O)N1CCC[C@H]1C(=O)N1CCC[C@H]1C(=O)N[C@H](C(=O)N[C@@H](CCCN=C(N)N)C(N)=O)C(C)C)[C@@H](C)CC` [RFRPPIRRPPIRPPFRPPFRPPVR], the MIC is 10.6 µM (≈ 32 µg/mL) in the experiment with Candida albicans 105; 10.6 µM (≈ 32 µg/mL) in experiment [16]; 21.3 µM (≈ 64 µg/mL) in experiment [17]; 0.166 µM (≈ 0.5 µg/mL) in experiment [18]; 0.0416 µM (≈ 0.125 µg/mL) in [19]; 5.32 µM and 8.65 µM in experiment [20]. In addition, the minimum inhibitory concentration (MIC) against Candida albicans 3153A was 5.32 µM (≈ 16 µg/mL); in experiment [14], 1.33 µM (≈ 4 µg/mL); with Escherichia coli UB1005, 0.0416 µM (≈ 0.125 µg/mL); in the experiment with Escherichia coli O111 it was 0.665 µM (≈ 2 µg/mL); in the experiment with Escherichia coli O157:H7, 2.66 µM and 5.42 µM; with Escherichia coli DC2, 0.0416 µM (≈ 0.125 µg/mL). Further, the MIC is 10.6 µM (≈ 32 µg/mL) in experiment [21], 2.66 µM (≈ 8 µg/mL) in [22] and 5.32 µM (≈ 16 µg/mL) in experiment [23].
